Test results published in ChEMBL document CHEMBL1151643, “The Identification of a Major Phytotoxic Component from Alternaria macrospora as -Dehydrocurvularin” (J Nat Prod, 1985).
≈ marks a conversion by molar mass, not a printed value.

Experiments:
Type in all cases: organism-based
[1] = test system: Gossypium hirsutum; experiment: Phytotoxicity against Gossypium hirsutum assessed as appearance of lesions at 10 ug applied to adaxial surface of leaf for 12 hrs measured after 16 hrs; details: in vivo, topical_or_ocular
[2] = test system: Gossypium hirsutum; experiment: Phytotoxicity against Gossypium hirsutum assessed as appearance of lesions at 0.5 ug applied to adaxial surface of leaf for 12 hrs measured after 4 days; details: in vivo, topical_or_ocular
[3] = Phytotoxicity against Cucumis sativus protoplast after 3 hrs by fluorescein diacetate staining; details: Cucumis sativus protoplasts, read-out: LD50

| Compound | Activity [1] | Activity [2] | CC50 at 3 h [3] [µg/mL] |
| --- | --- | --- | --- |
| CC1CCC/C=C/C(=O)c2c(O)cc(O)cc2CC(=O)O1 (centres undefined) | Toxic | Toxic | 15 (≈ 51.7 µM) |
| CC1CCCCCC(=O)c2c(O)cc(O)cc2CC(=O)O1 (centres undefined) [CURVULARIN] |  |  | 21 (≈ 71.8 µM) |
